The results in this text go back to patent US20250057973A1, “Exosomes for treating glioblastoma multiforme and manufacturing method thereof” (China Medical University, priority 2023, published 2025).

One assay deals with GBM cell line (U87). The assay is described as follows: Animal model of glioblastoma multiforme (U87 implanted into mouse brain): body weight, survival, tumor growth. The class given is in vivo, mice. The protocol:
To corroborate the actual effect of the drug carrier in living organisms, in a further experiment, 10^6 cells of the GBM cell line (U87) were implanted into the brains of mice to establish an animal model of glioblastoma multiforme. Seven days after the implantation surgery, the mice were administered the chemotherapy drug and/or drug carrier via intravenous injection, and imaging was used to confirm the growth status of the chemotherapy drug and/or drug carrier and the GBM cell line in the mouse brain. […]
FIGS. 10D and 10E further analyze the fluorescence expression (intensity (10^6)) of the GBM cell line in the brain area of the experimental mice in each group, and present the tissue morphology through hematoxylin-eosin staining (H&E staining) technique in the tissue section staining images to analyze the growth status of the GBM cells. […]

A further assay relates to GBM cell line U87. The assay is described as follows: Cell death rate of GBM cells in the blood-brain barrier cell culture model. The format is cell-based. To be noted: U87, BBB model. The protocol: The blood-brain barrier cell culture model 10 includes a first culture area 11 and a second culture area 12, with multiple perforations 13 connecting the first culture area 11 and the second culture area 12. The first culture area 11 and the second culture area 12 are filled with a hydrogel A. The GBM cell line U87 is cultured in the hydrogel A of the first culture area 11, while endothelial cells 20, pericytes 30, and astrocytes 40 are sequentially arranged in the second culture area 12. Wherein the resistance value of the blood-brain barrier cell culture model 10 is set to 214462 Ω.cm^2 to establish an impedance environment of the blood-brain barrier. In subsequent experiments, the drug carrier is given to the second culture area 12 of the blood-brain barrier cell culture model 10, and experimental analysis is performed on the GBM cell line U87 in the first culture area 11 to confirm the efficacy and therapeutic effect of the drug carrier crossing from the second culture area 12 to the first culture area 11. […]

Regarding `Cn1nnc2c(C(N)=O)ncn2c1=O` [TMZ, Temodal], in the assay with GBM cell line (U87) (U87 brain-implanted mice, intravenous injection), the “survival rate of the experimental mice” value is listed as “increased”. For the same molecule, the “growth of the GBM cell line in brain (fluorescence intensity)” value in the assay with GBM cell line (U87) (compared with Clt and αHLA-G EV groups) is on record as “inhibited to some extent”. Also, the “cell death rate (%) of the GBM cells” value with GBM cell line U87 (1st to 3rd day overall) is on record as “significant cell death rate”. Also, the “cell death rate (%) of the GBM cells, third day” value in the assay on GBM cell line U87 (by the third day) was “tended to moderate”.
